We go through 1 compound from US20250177366A1, “COMPOSITIONS AND METHODS FOR ALLEVIATING PAIN AND REDUCING ADVERSIVENESS OF STIMULI” (UNIVERSITY OF WASHINGTON, priority 2021, published 2025).

The assay concerns neuronal activity marker phosphorylated-ERK (pERK). Put plainly: Whole brain activity profiling, pERK/tERK immunolabeling and MAP-mapping. Type of assay: in vivo, Zebrafish (Danio rerio). Here is the method:
To investigate how AS1 might alter central nervous system activity in the presence of nociceptive stimuli, whole brain activity profiling with the neuronal activity marker phosphorylated-ERK (pERK) was performed. Briefly, 6 dpf larval zebrafish were exposed to noxious heat (37.5° C.) or rearing temperature (28.5° C.) in the presence of vehicle or AS1 (either 2.5 or 5 μM) for 15 minutes. Immunolabeling was then performed to detect both total ERK (tERK) and phosphorylated ERK (pERK) (FIG. 8). Volumetric z-stacks of the entire brain of each fish were taken upon a confocal microscope, registered to a reference brain, and smoothed using an ImageJ script. […] Brains from each experimental condition (AS1+28.5° C., Vehicle+37.5° C., and AS1+37.5° C.) with Vehicle+28.5° C. were initially compared to determine how activity under these experimental conditions differed from the baseline state, then the total change in signal in each brain region were subtracted for AS1+28.5° C. and Vehicle+37.5° C. treated fish from AS1+37.5° C. treated fish. This was done to look for brain regions specifically activated in the presence of the noxious stimulus and AS1, reasoning that these areas would drive attraction to noxious stimuli.
pERK Immunolabeling. […]

Consider `CC(C)c1ccc(C(=O)Nc2ccncc2)cc1` [AS1, 4-propan-2-yl-N-pyridin-4-ylbenzamide], for which the “share of the top 25 most active regions that are subpallial/dopaminergic populations” value (AS1 + noxious heat (37.5° C.)) is recorded as 64%. Moreover, the “brain regions recruited by AS1 alone” value (AS1-treated fish not exposed to noxious heat (28.5° C.)) was “primarily recruited neuron clusters within the mesencephalon and rhombencephalon”.
